The test system of experiment [1] is RAW264.7. The experiment can be described thus: Trans-suppression of NFkappaB in mouse RAW264.7 cells assessed as reduction in LPS-induced DNA binding at 2.5 to 10 uM preincubated for 3 hrs followed by LPS-stimulation and measured after 1 hr by TransAM assay. The format is cell-based.
The test system of experiment [2] is RAW264.7. Description: Trans-suppression of NFkappaB in mouse RAW264.7 cells assessed as LPS-induced nuclear-p65 level at 2.5 uM preincubated for 3 hrs followed by LPS-stimulation and measured after 1 hr by Western blot analysis (reference value: 3.3). The format is cell-based.
Experiment [3] has as its system RAW264.7. Description: Antiinflammatory activity against mouse RAW264.7 cells assessed as LPS-induced INOS mRNA expression at 2.5 uM preincubated for 3 hrs followed by LPS-stimulation and measured after 24 hrs by RT-PCR analysis (reference value: 8.2). The format is functional.
In experiment [4] the test system is RAW264.7. Description: Inhibition of LPS-induced JNK phosphorylation in mouse RAW264.7 cell at 10 uM preincubated for 3 hrs followed by LPS-stimulation and measured after 1 hr by Western blot analysis (reference value: 8.88). The format is cell-based. In general terms: In western blotting, separated proteins are transferred to a membrane and probed.
In experiment [5] the test system is RAW264.7. The experiment can be described thus: Inhibition of LPS-induced p38 MAPK protein expression in mouse RAW264.7 cell at 10 uM preincubated for 3 hrs followed by LPS-stimulation and measured after 1 hr by Western blot analysis (reference value: 1.1). The format is functional.
Experiment [6] deals with T1, MAP kinase p38 (Mus musculus) (UniProt P47811+O08911+Q9WUI1+Q9Z1B7). The experiment can be described thus: Inhibition of LPS-induced p38 MAPK phosphorylation in mouse RAW264.7 cell at 5 uM preincubated for 3 hrs followed by LPS-stimulation and measured after 1 hr by Western blot analysis (reference value: 5.59). The format is cell-based.
For experiment [7], the system named is RAW264.7. The experiment can be described thus: Trans-suppression of NFkappaB in mouse RAW264.7 cells assessed as LPS-induced IKB-apha degradation at 2.5 uM preincubated for 3 hrs followed by LPS-stimulation and measured after 1 hr by Western blot analysis (reference value: 0.29). The format is cell-based.
In experiment [8] the test system is RAW264.7. The experiment can be described thus: Antiinflammatory activity against mouse RAW264.7 cells assessed as LPS-induced INOS mRNA expression at 5 uM preincubated for 3 hrs followed by LPS-stimulation and measured after 24 hrs by RT-PCR analysis (reference value: 8.2). The format is functional.
Experiment [9] has as its system RAW264.7. Description: Antiinflammatory activity against mouse RAW264.7 cells assessed as inhibition of LPS-induced PGE2 production preincubated for 3 hrs followed by LPS-stimulation and measured after 24 hrs by ELISA. The format is functional, cell-based. Background: An ELISA detects its analyte on a solid surface through an enzyme-linked reagent.
For experiment [10], the system named is RAW264.7. The experiment can be described thus: Inhibition of LPS-induced ERK phosphorylation in mouse RAW264.7 cell at 5 uM preincubated for 3 hrs followed by LPS-stimulation and measured after 1 hr by Western blot analysis (reference value: 6.92). The format is cell-based.
Experiment [11] has as its system RAW264.7. Description: Inhibition of LPS-induced ERK protein expression in mouse RAW264.7 cell at 10 uM preincubated for 3 hrs followed by LPS-stimulation and measured after 1 hr by Western blot analysis (reference value: 1.13). The format is functional.
Experiment [12] deals with RAW264.7. Description: Trans-suppression of NFkappaB in mouse RAW264.7 cells assessed as LPS-induced cytosol-p65 level at 10 uM preincubated for 3 hrs followed by LPS-stimulation and measured after 1 hr by Western blot analysis (reference value: 0.09). The format is cell-based.
For experiment [13], the system named is RAW264.7. The experiment can be described thus: Inhibition of LPS-induced JNK phosphorylation in mouse RAW264.7 cell at 2.5 uM preincubated for 3 hrs followed by LPS-stimulation and measured after 1 hr by Western blot analysis (reference value: 8.88). The format is cell-based.
In experiment [14] the test system is RAW264.7. The experiment can be described thus: Inhibition of LPS-induced p38 MAPK protein expression in mouse RAW264.7 cell at 2.5 uM preincubated for 3 hrs followed by LPS-stimulation and measured after 1 hr by Western blot analysis (reference value: 1.1). The format is functional.
For experiment [15], the system named is RAW264.7. Description: Trans-suppression of NFkappaB in mouse RAW264.7 cells assessed as LPS-induced cytosol-p50 level at 2.5 uM preincubated for 3 hrs followed by LPS-stimulation and measured after 1 hr by Western blot analysis (reference value: 0.28). The format is cell-based.
Experiment [16] has as its system RAW264.7. Description: Trans-suppression of NFkappaB in mouse RAW264.7 cells assessed as LPS-induced IKB-apha phosphorylation at 2.5 uM preincubated for 3 hrs followed by LPS-stimulation and measured after 1 hr by Western blot analysis (reference value: 6.04). The format is cell-based.
For experiment [17], the system named is RAW264.7. Description: Trans-suppression of NFkappaB in mouse RAW264.7 cells assessed as LPS-induced nuclear-p50 level at 5 uM preincubated for 3 hrs followed by LPS-stimulation and measured after 1 hr by Western blot analysis (reference value: 3.2). The format is cell-based.
The subject of experiment [18] is RAW264.7. The experiment can be described thus: Inhibition of LPS-induced JNK phosphorylation in mouse RAW264.7 cell preincubated for 3 hrs followed by LPS-stimulation and measured after 1 hr by Western blot analysis. The format is cell-based.
Experiment [19] has as its system RAW264.7. The experiment can be described thus: Inhibition of LPS-induced JNK protein expression in mouse RAW264.7 cell at 10 uM preincubated for 3 hrs followed by LPS-stimulation and measured after 1 hr by Western blot analysis (reference value: 1.21). The format is functional.
In experiment [20] the test system is RAW264.7. The experiment can be described thus: Antiinflammatory activity against mouse RAW264.7 cells assessed as reduction in LPS-induced IL-12 mRNA expression preincubated for 3 hrs followed by LPS-stimulation and measured after 12 hrs by RT-PCR analysis. The format is functional, cell-based.
Experiment [21] has as its target T1, MAP kinase p38 (Mus musculus). The experiment can be described thus: Inhibition of LPS-induced p38 MAPK phosphorylation in mouse RAW264.7 cell at 2.5 uM preincubated for 3 hrs followed by LPS-stimulation and measured after 1 hr by Western blot analysis (reference value: 5.59). The format is cell-based.
In experiment [22] the test system is RAW264.7. Description: Inhibition of LPS-induced ERK protein expression in mouse RAW264.7 cell at 5 uM preincubated for 3 hrs followed by LPS-stimulation and measured after 1 hr by Western blot analysis (reference value: 1.13). The format is functional.
Experiment [23] concerns RAW264.7. The experiment can be described thus: Trans-suppression of NFkappaB in mouse RAW264.7 cells assessed as LPS-induced IKB-apha phosphorylation at 10 uM preincubated for 3 hrs followed by LPS-stimulation and measured after 1 hr by Western blot analysis (reference value: 6.04). The format is cell-based.

SMILES strings stand for the structures. Calls of active or inactive are those of the source. No cut-off for these calls is given here.

Consider `COc1cc(OC)c2c(O)c3c(=O)cc(C)oc3c(-c3c(O)cc4cc(O)c5c(=O)cc(C)oc5c4c3OC)c2c1` (atropisomer aS) [ASPERPYRONE A], for which the outcome in the experiment with RAW264.7 [1] was Active. The fold change (FC) was 3.28 in the experiment with RAW264.7 [2]; 8.48 in the experiment on RAW264.7 [3]; 3.08 with RAW264.7 [4]; 1.05 in the experiment with RAW264.7 [5]; 5.63 in experiment [6]; 0.31 in the experiment on RAW264.7 [7]. In addition, the “fold change (FC)” value in the experiment on RAW264.7 [8] worked out at 2.62; in the experiment with RAW264.7 [10], 7.31; with RAW264.7 [11], 1.1; in the experiment with RAW264.7 [12], 1.04; in the experiment with RAW264.7 [13], 8.73; in the experiment with RAW264.7 [14], 1.12. The fold change (FC) was determined as 0.55 in the experiment with RAW264.7 [15]; 2.93 in the experiment on RAW264.7 [16]; 1.28 in the experiment with RAW264.7 [17]; 1.19 in the experiment on RAW264.7 [19]; 5.63 in experiment [21]; 1.09 in the experiment on RAW264.7 [22]. The fold change (FC) with RAW264.7 [23] stood at 2.3. For the same compound, the inhibition entry with RAW264.7 [9] and in the experiment on RAW264.7 [18] was “Dose-dependent effect” throughout. Besides, in the experiment on RAW264.7 [20], the Activity result is “Dose-dependent effect”.

Values taken from ChEMBL document CHEMBL4610081, “Anti-inflammatory Metabolites from Chaetomium nigricolor” (J Nat Prod, 2020).
